Among the data in PubChem BioAssay (NCI) are GI50 and TGI values, retold here.

Test in all cases: DTP human tumour cell line panel, 48 h
Assay [1] relates to A549 NSCLC.
Assay [2] concerns CCRF-CEM leukemia.
Assay [3] relates to DU-145 prostate.
For assay [4], the system named is HCT-15 colon.
For assay [5], the system named is HT29 colon.
Assay [6] deals with K-562 leukemia.
The test system of assay [7] is MDA-MB-435.
The subject of assay [8] is NCI-H522 lung.
In assay [9] the test system is SK-MEL-2 melanoma.
Assay [10] concerns SK-MEL-28 melanoma.

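Compound exposure: 48 hours, 5 concentrations, 96-well plates. GI50 is the concentration that inhibits growth by half. TGI: total growth inhibition.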

On to `Cc1nn2c(/C=C3\C(=O)Nc4ccc(Cl)cc43)c(C)nc2s1`, for which the GI50 is 93.9 µM in assay [1]; 21.1 µM in assay [2]; 86.5 µM in [3]; 13.9 µM in assay [4]; 5.16 µM in assay [5]; 5.43 µM in assay [6]. The GI50 was 3.4 µM in assay [7], 6 µM in [8], 22.2 µM in assay [9] and 27.5 µM in assay [10]. In addition, the TGI in assay [1], in [2], in [3], in assay [4], in assay [5] and in [6] was more than 100 µM in each case. In addition, the TGI in assay [7] is 26.7 µM; in [8] it was 39 µM; in assay [9] it was 82.4 µM; in assay [10] it was more than 100 µM.

For the molecule `C=C1C(=O)O[C@H]2[C@H]1CC/C(COC(=O)NCc1ccc(Cn3c(=O)sn(CCCl)c3=O)cc1)=C\CC[C@@]1(C)O[C@@H]21`, the GI50 in assay [1] is 14.2 µM; in [2] it was 1.73 µM; in assay [3] it was 1.72 µM; in [4], 1.85 µM; in [5], 2.16 µM; in assay [6], 2.07 µM. Moreover, the GI50 in assay [7] was 1.74 µM; in assay [8] it was 1.38 µM; in assay [9], 10.6 µM; in [10], 1.74 µM. Further, the TGI in assay [1] worked out at 29.1 µM; in [2] it was 7 µM; in assay [3] it was 3.14 µM; in [4], 3.82 µM; in [5] it was 4.77 µM; in [6] it was 5.63 µM. Further, the TGI in [7] amounted to 3.47 µM; in assay [8], 2.98 µM; in assay [9], 24.7 µM; in [10], 3.38 µM.

`C=C(C)C(=O)O[C@H]1CC(=C)[C@@H]2C[C@H](O)[C@](O)(CCl)[C@@H]2[C@H]2OC(=O)C(=C)[C@@H]21`: the GI50 in assay [1] was 18.4 µM; in [2], 1.57 µM; in [3] it was 2.16 µM; in [4] it was 1.89 µM; in assay [5], 2.89 µM; in [6] it was 1.8 µM. In addition, the GI50 is 1.99 µM in assay [7], 1.91 µM in assay [8], 6.59 µM in assay [9] and 2.02 µM in assay [10]. The TGI in assay [1] is 38.2 µM; in assay [2], 3.71 µM; in assay [3], 6.33 µM; in [4], 4.42 µM; in assay [5] it was 7.42 µM; in assay [6] it was 4.59 µM. The TGI was 3.77 µM in [7], 4 µM in [8], 22 µM in [9] and 3.9 µM in assay [10].

Take `Cc1cccc(C)c1NC(=O)C(C#N)C1=C(Cl)C(=O)c2ccccc2C1=O` (stereo not given): the TGI in assay [1] is 41.6 µM; in assay [2], 35.1 µM; in assay [3], 28.1 µM; in assay [4], 36 µM; in [5], 39.8 µM; in [6] it was more than 36.4 µM. Moreover, the TGI in assay [7] amounted to 34.3 µM; in assay [8] it was 26.2 µM; in assay [9], 29.2 µM; in assay [10], 38.1 µM.

In the case of `CN(O)c1nc(N(C)O)nc(N2CCOCC2)n1`, the GI50 in [1] is 2.94 µM; in assay [2], 0.793 µM; in assay [3], 4.93 µM; in [4], 0.637 µM; in [5], 4.67 µM; in [6] it was more than 100 µM. In addition, the GI50 is 6.6 µM in assay [7], 4.03 µM in assay [8], 7.7 µM in assay [9] and 7.08 µM in assay [10]. Further, the TGI in assay [1], in assay [2], in [3], in [4], in assay [5] and in [6] was more than 100 µM in each case. In addition, the TGI in [7], in [8], in assay [9] and in [10] was more than 100 µM throughout.

Regarding `Cc1cc2c(cc1C)N(C(=O)CCl)CC(=O)N2`, the GI50 in assay [1] is 8.23 µM; in assay [2], 2.01 µM; in [3] it was 3.49 µM; in assay [4], 1.74 µM; in assay [5] it was 2.01 µM; in assay [6], 3.39 µM. In addition, the GI50 in [7] is 2.67 µM; in [8], 0.568 µM; in [9], 4.2 µM; in assay [10], 3.89 µM. Besides, the TGI in assay [1] is 26.7 µM; in assay [2] it was 5.49 µM; in assay [3] it was 10.2 µM; in [4] it was 3.42 µM; in [5] it was 3.73 µM; in [6], 29.4 µM. For the same molecule, the TGI in assay [7] is 10.2 µM; in assay [8] it was 1.97 µM; in assay [9] it was 14.4 µM; in assay [10], 14.8 µM.

Turning to `COc1c(C)c2c(c(O)c1C/C=C(\C)CCC(=O)O)C(=O)OC2`, the GI50 in [1] is 0.239 µM; in assay [2], 0.0889 µM; in assay [3] it was 0.57 µM; in [4], 0.15 µM; in assay [5], 0.248 µM; in assay [6] it was 0.123 µM. Besides, the GI50 in [7] is 0.32 µM; in assay [8], 0.262 µM; in assay [9] it was 2 µM; in assay [10], 0.38 µM. Also, the TGI in assay [1], in [2], in assay [3], in assay [4], in assay [5] and in assay [6] was more than 100 µM throughout. Moreover, the TGI in assay [7], in assay [8], in [9] and in [10] was more than 100 µM each time.
